Counter-ions that a name gives are not always drawn.
These molecules were tested against ALK1 kinase (Homo sapiens (Human), UniProt P37023) (assay: In vitro enzyme inhibition using scintillation of incorporated radio label (flashplate assay)). Conditions: biotinylated α-casein, 33P-ATP, 500 nM ATP.
Sequence of ALK1 kinase (P37023 22-503): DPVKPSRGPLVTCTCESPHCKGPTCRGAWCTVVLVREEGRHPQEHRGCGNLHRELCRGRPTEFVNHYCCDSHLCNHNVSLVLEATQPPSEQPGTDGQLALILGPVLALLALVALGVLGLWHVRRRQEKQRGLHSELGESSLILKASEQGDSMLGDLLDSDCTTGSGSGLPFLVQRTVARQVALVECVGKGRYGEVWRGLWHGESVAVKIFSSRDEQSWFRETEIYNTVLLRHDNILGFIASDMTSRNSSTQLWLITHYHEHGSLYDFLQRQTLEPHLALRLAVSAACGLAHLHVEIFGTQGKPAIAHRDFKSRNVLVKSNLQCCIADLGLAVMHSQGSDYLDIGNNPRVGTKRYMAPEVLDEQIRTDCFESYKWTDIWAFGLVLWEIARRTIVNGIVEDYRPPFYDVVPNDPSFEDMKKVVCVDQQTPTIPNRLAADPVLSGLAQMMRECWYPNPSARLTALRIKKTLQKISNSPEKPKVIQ
Format: biochemical
Procedure: B-1a. In Vitro Enzyme Inhibition Using Scintillation of Incorporated Radio Label (Flashplate Assay)
Test compounds diluted in DMSO are mixed with a suitable substrate/co-substrate (here: biotinylated α-casein and ^33P-ATP) in a corresponding assay buffer. Addition of the enzyme of interest (here: ALK1 kinase) starts the enzyme reaction. The enzyme-catalyzed incorporation of radio label into the substrate is measured via scintillation. Incorporated radio label is separated from free radio label via specific binding of the biotinylated substrate to strepavidin-coated microtiter plates (flashplates) and concomitant washing steps. The scintillation signal intensity (counts per minutes, cpm) is proportional to the enzyme activity. Enzyme inhibition results in a decreased signal intensity. IC50 values of the test compounds are determined by cpm-versus-[I] plots.
Reaction buffer contains 50 mM Tris pH 8.0 (Sigma), 1 mM MnCl2 (Sigma), 0.01% Nonidet P40 (Fluka), 0.5× Complete EDTA-free protease inhibitors (Roche; contains a mixture of several protease inhibitors for the inhibition of serine and cysteine (but not metallo-) proteases; 1 tablet contains protease inhibitors sufficient for a 50 ml cell extract; the concentration used in this assay corresponds to 1 tablet in 100 ml).
• 1.) Stop solution: Dulbecco's PBS (PAA, Pasching, Austria), 25 mM EDTA (Sigma), 25 μM ATP (Roche), 0.05% Triton X-100 (Sigma); • 2.) Saturation buffer: Dulbecco's PBS (PAA, Pasching, Austria), 100 μM ATP (Roche), 0.2% Triton X-100 (Sigma); • 3.) Wash buffer: Dulbecco's PBS (PAA, Pasching, Austria). Enzyme Solution:
ALK1 (Invitrogen, Paisley, United Kingdom) stock solution (35.7 ng/μl) is diluted to 4 ng/μl; final concentration in the reaction is 1 ng/μl.
Dephosphorylated α-casein (Sigma) is biotinylated according to the manufacturer's protocol (Pierce, Bonn, Germany) resulting in a stock solution of 61.6 μM. Briefly, EZ-Link® Biotin reagent (sulfosuccinimidyl-6-(biotinamido)hexanoate; Pierce, Bonn, Germany) is added in equal molarity to α-casein and incubated on ice for 2 h. Afterwards, the biotin reagent is removed by dialysis (2×2 h and overnight).
A 100 mM solution of cold (unlabelled) ATP (Roche) is diluted 1:100 before each test. For the substrate mix, α-casein is diluted to 2.22 μM resulting in a final concentration of 1 μM α-casein in the reaction. Additionally, cold ATP is added to give a 1.11 μM solution which results in a final concentration of 500 nM in the reaction.
Radioactive ATP Solution:
The stock solution (9.25 MBq/25 μl of ^33P-ATP; Perkin Elmer, Rodgau, Germany) is diluted to 651.2 Bq/μl.
Compounds are dissolved in 100% DMSO (10 mM stock solution) and diluted to 2 mM. Further dilutions are made stepwise 1:3.16 in DMSO.
A volume of 9 μl substrate solution is provided into each well of a 384 well microliter plate (Greiner Bio-One, Solingen, Germany), 1 μl compound solution and 5 μl of the radioactive ATP solution are added. Enzyme reaction starts with addition of 5 μl of enzyme solution. The mixture is incubated for 60 minutes at room temperature and then stopped by addition of 10 μl stop solution. The 384 well microliter flashplates (Perkin Elmer, Rodgau, Germany) are saturated with 50 μl saturation buffer per well for at least 60 minutes. Subsequently, a volume of 20 μl is discarded and replaced with 20 μl of the stopped ALK1 reaction mixture. Binding of biotinylated substrate to the flashplate is allowed for by overnight incubation at room temperature. Bound substrate is separated from unbound components through repeated washing steps (3×50 μl washing buffer per well). Finally, 50 μl washing buffer is added, and the scintillation signal (cpm) is measured in a suitable counter (Perkin Elmer, Rodgau, Germany).
Molecule `Nc1ncnn2c(C3(O)CCCNC3)cc(-c3cc(F)c(CO)c(F)c3)c12` (racemic) [Example 9, rac-3-{4-Amino-5-[3,5-difluoro-4-(hydroxymethyl)phenyl]pyrrolo[2,1-f][1,2,4]triazin-7-yl}-piperidin-3-ol] has an IC50 of 5.7 nM.
`CC(O)c1cc(-c2cc(F)c(CO)c(F)c2)c2c(N)ncnn12` (racemic) [Example 44, rac-1-{4-Amino-5-[3,5-difluoro-4-(hydroxymethyl)phenyl]pyrrolo[2,1-f][1,2,4]triazin-7-yl}-ethanol] gave an IC50 of 3.8 nM.
Work on `Nc1ncnn2c(CCCCO)cc(-c3ccc(CO)cc3)c12` [Example 4, 4-{4-Amino-5-[4-(hydroxymethyl)phenyl]pyrrolo[2,1-f][1,2,4]triazin-7-yl}butan-1-ol] yielded an IC50 of 1 nM.
`Nc1ncnn2c(C(O)C3CCOCC3)cc(-c3cc(F)c(CO)c(F)c3)c12` (stereo not shown) [Example 6, {4-Amino-5-[3,5-difluoro-4-(hydroxymethyl)phenyl]pyrrolo[2,1-f][1,2,4]triazin-7-yl}(tetrahydro-2H-pyran-4-yl)methanol] showed an IC50 of 40 nM.
Work on `Nc1ncnn2c(C3CCNCC3)cc(-c3ccc(CO)cc3)c12` [Example 10, {4-[4-Amino-7-(piperidin-4-yl)pyrrolo[2,1-f][1,2,4]triazin-5-yl]phenyl}methanol] yielded an IC50 of 8 nM.
With `Nc1ncnn2c([C@H]3CCCNC3)cc(-c3cc(F)c(CO)c(F)c3)c12` [Example 12, (4-{4-Amino-7-[(3S)-piperidin-3-yl]pyrrolo[2,1-f][1,2,4]triazin-5-yl}-2,6-difluorophenyl)methanol] the IC50 was 5.9 nM.
`Cc1nc(-c2cc(-c3ccc(CO)cc3)c3c(N)ncnn23)cs1` [Example 13, {4-[4-Amino-7-(2-methyl-1,3-thiazol-4-yl)pyrrolo[2,1-f][1,2,4]triazin-5-yl]phenyl}methanol] gave an IC50 of 4 nM.
Work on `Cc1nc(-c2cc(-c3cc(F)c(CO)c(F)c3)c3c(N)ncnn23)cs1` [Example 14, {4-[4-Amino-7-(2-methyl-1,3-thiazol-4-yl)pyrrolo[2,1-f][1,2,4]triazin-5-yl]-2,6-difluorophenyl}-methanol] yielded an IC50 of 5.3 nM.
`CCc1nc(-c2cc(-c3ccc(CO)cc3)c3c(N)ncnn23)cs1` [Example 15, {4-[4-Amino-7-(2-ethyl-1,3-thiazol-4-yl)pyrrolo[2,1-f][1,2,4]triazin-5-yl]phenyl}methanol] showed an IC50 of 60 nM.
`CCc1nc(-c2cc(-c3cc(F)c(CO)c(F)c3)c3c(N)ncnn23)cs1` [Example 16, {4-[4-Amino-7-(2-ethyl-1,3-thiazol-4-yl)pyrrolo[2,1-f][1,2,4]triazin-5-yl]-2,6-difluorophenyl}-methanol] showed an IC50 of 2.6 nM.
With `Nc1ncnn2c(CN3CCNCC3)cc(-c3ccc(CO)cc3)c12` [Example 18, {4-[4-Amino-7-(piperazin-1-ylmethyl)pyrrolo[2,1-f][1,2,4]triazin-5-yl]phenyl}methanol] the IC50 was 80 nM.
`Nc1ncnn2c(CN3CCOCC3)cc(-c3ccc(CO)cc3)c12` [Example 19, {4-[4-Amino-7-(morpholin-4-ylmethyl)pyrrolo[2,1-f][1,2,4]triazin-5-yl]phenyl}methanol] was tested, and the IC50 was 19 nM.
In the case of `Cc1cc(-c2cc(CN3CCOCC3)n3ncnc(N)c23)ccc1CO` [Example 23, {4-[4-Amino-7-(morpholin-4-ylmethyl)pyrrolo[2,1-f][1,2,4]triazin-5-yl]-2-methylphenyl}methanol], the IC50 is reported as 30 nM.
`Nc1ncnn2c(CN3CCOCC3)cc(-c3ccc(CO)nc3)c12` [Example 24, {5-[4-Amino-7-(morpholin-4-ylmethyl)pyrrolo[2,1-f][1,2,4]triazin-5-yl]pyridin-2-yl}methanol] showed an IC50 of 140 nM.
For `Nc1ncnn2c(CN3CCC(O)CC3)cc(-c3cc(F)c(CO)c(F)c3)c12` [Example 25, 1-({4-Amino-5-[3,5-difluoro-4-(hydroxymethyl)phenyl]pyrrolo[2,1-f][1,2,4]triazin-7-yl}methyl)piperidin-4-ol], the IC50 was 65 nM.
In the case of `Nc1ncnn2c(CN3CCC(O)C3)cc(-c3cc(F)c(CO)c(F)c3)c12` (stereo not shown) [Example 26, 1-({4-Amino-5-[3,5-difluoro-4-(hydroxymethyl)phenyl]pyrrolo[2,1-f][1,2,4]triazin-7-yl}methyl)pyrrolidin-3-ol], the IC50 is reported as 30 nM.
For `Nc1ncnn2c(CN3CCCC(O)C3)cc(-c3cc(F)c(CO)c(F)c3)c12` (stereo not shown) [Example 27, 1-({4-Amino-5-[3,5-difluoro-4-(hydroxymethyl)phenyl}pyrrolo[2,1-f][1,2,4]triazin-7-yl]methyl)piperidin-3-ol], the IC50 was 70 nM.
In the case of `COc1cc(-c2cc([C@H]3CC[C@H](O)CC3)n3ncnc(N)c23)cc(F)c1CO` [Example 29, trans-4-{4-Amino-5-[3-fluoro-4-(hydroxymethyl)-5-methoxyphenyl]pyrrolo[2,1-f][1,2,4]triazin-7-yl}cyclohexanol], the IC50 is reported as 1 nM.
Molecule `Cc1cc(-c2cc(C3CCCNC3)n3ncnc(N)c23)cc(F)c1CO` (stereo not shown) [Example 31, {4-[4-Amino-7-(piperidin-3-yl)pyrrolo[2,1-f][1,2,4]triazin-5-yl]-2-fluoro-6-methylphenyl}-methanol] has an IC50 of 4 nM.
`Cc1cc(-c2cc(C3CCNC3)n3ncnc(N)c23)cc(F)c1CO` (stereo not shown) [Example 32, {4-[4-Amino-7-(pyrrolidin-3-yl)pyrrolo[2,1-f][1,2,4]triazin-5-yl]-2-fluoro-6-methylphenyl}-methanol] gave an IC50 of 4 nM.
In the case of `Nc1ncnn2c(C3(O)CCCCC3)cc(-c3cc(F)c(CO)c(F)c3)c12` [Example 33, 1-{4-Amino-5-[3,5-difluoro-4-(hydroxymethyl)phenyl]pyrrolo[2,1-f][1,2,4]triazin-7-yl}cyclohexanol trifluoroacetate], the IC50 is reported as 15 nM.
Work on `NCc1nc(-c2cc(-c3cc(F)c(CO)c(F)c3)c3c(N)ncnn23)cs1` [Example 34, (4-[4-Amino-7-[2-(aminomethyl)-1,3-thiazol-4-yl]pyrrolo[2,1-f][1,2,4]triazin-5-yl]-2,6-difluorophenyl)methanol] yielded an IC50 of 4.1 nM.

Reference: patent US9040691B2, “Hydroxymethylaryl-substituted pyrrolotriazines as ALK1 inhibitors” (BAYER INTELLECTUAL PROPERTY GMBH, priority 2011, dated 2015)
